Among the data in ChEMBL document CHEMBL3991601, “The target landscape of clinical kinase drugs” (Science, 2017) are Kd values, retold here.

The source made the active and inactive calls. For most assays here, no stated cut-off is given here; in the data, actives have a measured Kd and inactives only a lower limit.

Assay [1] concerns the target Calcium/calmodulin-dependent protein kinase type II subunit delta (Homo sapiens, UniProt Q13557).
The target of assay [2] is Cyclin-dependent kinase 7 (Homo sapiens, UniProt P50613).
Sequence of Cyclin-dependent kinase 7 (P50613 whole entry, canonical isoform): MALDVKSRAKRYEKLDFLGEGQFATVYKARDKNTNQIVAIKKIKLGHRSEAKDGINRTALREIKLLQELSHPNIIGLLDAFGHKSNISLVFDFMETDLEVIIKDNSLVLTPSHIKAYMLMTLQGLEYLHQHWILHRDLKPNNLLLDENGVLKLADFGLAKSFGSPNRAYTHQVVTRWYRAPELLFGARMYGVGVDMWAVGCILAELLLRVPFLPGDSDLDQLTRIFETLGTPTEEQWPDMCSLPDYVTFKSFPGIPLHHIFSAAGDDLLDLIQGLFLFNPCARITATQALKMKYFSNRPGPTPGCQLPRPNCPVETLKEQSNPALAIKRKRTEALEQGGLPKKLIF
In assay [3] the target is Casein kinase I isoform epsilon (Homo sapiens, UniProt P49674).
Sequence of Casein kinase I isoform epsilon (P49674 whole entry, canonical isoform): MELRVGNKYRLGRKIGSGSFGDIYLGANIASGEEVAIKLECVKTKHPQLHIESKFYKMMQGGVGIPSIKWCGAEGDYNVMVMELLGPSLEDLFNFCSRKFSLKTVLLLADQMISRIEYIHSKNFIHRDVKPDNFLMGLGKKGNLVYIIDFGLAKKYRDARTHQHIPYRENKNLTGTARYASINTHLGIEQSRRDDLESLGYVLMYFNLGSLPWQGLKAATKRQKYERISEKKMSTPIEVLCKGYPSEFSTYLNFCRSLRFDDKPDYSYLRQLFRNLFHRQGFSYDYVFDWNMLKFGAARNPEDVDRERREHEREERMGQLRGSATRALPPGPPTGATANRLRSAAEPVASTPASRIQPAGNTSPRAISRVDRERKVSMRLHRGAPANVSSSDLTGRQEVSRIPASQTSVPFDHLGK
Assay [4] addresses Serine/threonine-protein kinase/endoribonuclease IRE1 (Homo sapiens, UniProt O75460).
In assay [5] the target is Putative heat shock protein HSP 90-beta 2 (Homo sapiens, UniProt Q58FF8).
Sequence of Putative heat shock protein HSP 90-beta 2 (Q58FF8 whole entry, canonical isoform): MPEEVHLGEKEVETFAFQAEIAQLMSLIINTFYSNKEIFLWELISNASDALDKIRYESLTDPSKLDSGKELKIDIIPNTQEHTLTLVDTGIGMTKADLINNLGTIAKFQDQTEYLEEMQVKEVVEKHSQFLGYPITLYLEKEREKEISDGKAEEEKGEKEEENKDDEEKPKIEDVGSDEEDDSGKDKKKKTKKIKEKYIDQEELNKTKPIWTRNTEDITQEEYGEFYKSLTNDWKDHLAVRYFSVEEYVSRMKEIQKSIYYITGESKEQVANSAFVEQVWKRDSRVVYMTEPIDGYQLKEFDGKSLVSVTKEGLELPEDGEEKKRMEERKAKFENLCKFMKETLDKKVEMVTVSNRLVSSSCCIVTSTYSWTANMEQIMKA
In assay [6] the target is T1, Phosphorylase b kinase gamma catalytic chain, liver/testis isoform (Homo sapiens, UniProt P15735).
T1 sequence (P15735 whole entry): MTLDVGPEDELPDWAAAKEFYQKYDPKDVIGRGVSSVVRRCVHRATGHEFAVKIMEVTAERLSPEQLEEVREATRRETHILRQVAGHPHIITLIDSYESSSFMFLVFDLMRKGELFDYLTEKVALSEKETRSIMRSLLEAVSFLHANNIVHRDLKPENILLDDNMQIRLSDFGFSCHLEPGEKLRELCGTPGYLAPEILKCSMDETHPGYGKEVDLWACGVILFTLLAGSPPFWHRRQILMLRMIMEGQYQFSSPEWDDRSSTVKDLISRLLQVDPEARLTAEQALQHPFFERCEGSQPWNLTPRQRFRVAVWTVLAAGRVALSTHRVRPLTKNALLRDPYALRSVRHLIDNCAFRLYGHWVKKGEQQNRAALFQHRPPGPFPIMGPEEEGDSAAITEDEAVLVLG

Assay [7] has as its target Serine/threonine-protein kinase N1 (Homo sapiens, UniProt Q16512).
For assay [8], the target named is TRAF2 and NCK-interacting protein kinase (Homo sapiens, UniProt Q9UKE5).
Sequence of TRAF2 and NCK-interacting protein kinase (Q9UKE5 whole entry): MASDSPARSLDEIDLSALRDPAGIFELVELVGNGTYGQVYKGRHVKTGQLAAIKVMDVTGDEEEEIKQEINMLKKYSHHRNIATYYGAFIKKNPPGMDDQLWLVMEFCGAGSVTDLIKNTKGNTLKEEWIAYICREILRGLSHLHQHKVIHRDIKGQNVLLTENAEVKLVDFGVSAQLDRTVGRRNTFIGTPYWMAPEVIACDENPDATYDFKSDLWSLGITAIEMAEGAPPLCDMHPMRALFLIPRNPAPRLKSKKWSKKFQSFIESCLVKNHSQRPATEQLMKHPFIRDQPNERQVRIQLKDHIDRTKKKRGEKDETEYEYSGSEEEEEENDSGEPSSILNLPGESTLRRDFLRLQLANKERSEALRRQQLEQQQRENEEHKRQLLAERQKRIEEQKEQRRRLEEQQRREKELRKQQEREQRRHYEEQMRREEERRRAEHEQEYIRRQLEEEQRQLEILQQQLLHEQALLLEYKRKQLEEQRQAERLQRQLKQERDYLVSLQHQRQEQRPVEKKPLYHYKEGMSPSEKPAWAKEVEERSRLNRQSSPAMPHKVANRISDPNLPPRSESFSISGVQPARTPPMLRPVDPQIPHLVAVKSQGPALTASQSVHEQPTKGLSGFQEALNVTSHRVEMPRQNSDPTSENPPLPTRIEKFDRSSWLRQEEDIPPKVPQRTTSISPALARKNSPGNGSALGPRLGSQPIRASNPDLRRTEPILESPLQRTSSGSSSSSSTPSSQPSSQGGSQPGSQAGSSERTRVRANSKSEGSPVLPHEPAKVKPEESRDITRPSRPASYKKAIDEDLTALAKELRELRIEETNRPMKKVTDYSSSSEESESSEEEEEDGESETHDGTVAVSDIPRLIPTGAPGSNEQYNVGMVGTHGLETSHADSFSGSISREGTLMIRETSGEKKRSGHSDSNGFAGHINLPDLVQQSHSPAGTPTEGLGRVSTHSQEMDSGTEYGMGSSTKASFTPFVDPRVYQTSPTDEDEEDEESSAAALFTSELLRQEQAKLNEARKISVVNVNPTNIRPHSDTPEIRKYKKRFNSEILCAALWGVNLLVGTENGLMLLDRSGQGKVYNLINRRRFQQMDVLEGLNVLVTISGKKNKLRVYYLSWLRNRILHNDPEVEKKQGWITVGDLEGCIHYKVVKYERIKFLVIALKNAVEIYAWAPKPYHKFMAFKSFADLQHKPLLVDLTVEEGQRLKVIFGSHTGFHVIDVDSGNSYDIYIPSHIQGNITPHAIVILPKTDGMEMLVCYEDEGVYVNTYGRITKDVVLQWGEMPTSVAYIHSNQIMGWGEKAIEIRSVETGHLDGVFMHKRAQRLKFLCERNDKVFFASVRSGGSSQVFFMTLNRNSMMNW
Assay [9] concerns the target T2, Uncharacterized protein FLJ45252 (Homo sapiens, UniProt Q6ZSR9).
T2 sequence (Q6ZSR9 whole entry): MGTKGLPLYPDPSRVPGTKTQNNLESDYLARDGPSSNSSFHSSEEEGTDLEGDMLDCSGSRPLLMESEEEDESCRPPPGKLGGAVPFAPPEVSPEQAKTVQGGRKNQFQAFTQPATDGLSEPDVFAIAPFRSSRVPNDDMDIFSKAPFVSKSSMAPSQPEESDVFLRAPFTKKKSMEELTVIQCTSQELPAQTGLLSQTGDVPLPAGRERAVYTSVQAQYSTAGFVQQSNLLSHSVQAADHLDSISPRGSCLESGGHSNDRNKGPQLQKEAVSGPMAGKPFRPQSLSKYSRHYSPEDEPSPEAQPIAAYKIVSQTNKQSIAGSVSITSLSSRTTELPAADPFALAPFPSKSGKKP
The settings on record: read-out: Kd apparent; k-562, colo 205, sk-n-be(2) and mv-4-11.

A further assay deals with T3, Aurora kinase A (Homo sapiens, UniProt O14965).
T3 sequence (O14965 whole entry): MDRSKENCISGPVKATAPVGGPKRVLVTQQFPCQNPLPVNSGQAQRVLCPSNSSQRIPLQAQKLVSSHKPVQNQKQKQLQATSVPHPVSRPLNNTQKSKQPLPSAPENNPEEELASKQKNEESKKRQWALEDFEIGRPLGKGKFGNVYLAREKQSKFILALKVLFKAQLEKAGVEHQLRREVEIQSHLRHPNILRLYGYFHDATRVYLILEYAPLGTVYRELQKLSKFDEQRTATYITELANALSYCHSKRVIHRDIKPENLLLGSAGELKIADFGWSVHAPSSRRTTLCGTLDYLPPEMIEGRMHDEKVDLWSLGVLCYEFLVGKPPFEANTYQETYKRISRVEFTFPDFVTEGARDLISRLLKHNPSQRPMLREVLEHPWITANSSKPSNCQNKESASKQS

Sequence of Serine/threonine-protein kinase/endoribonuclease IRE1 (O75460 whole entry): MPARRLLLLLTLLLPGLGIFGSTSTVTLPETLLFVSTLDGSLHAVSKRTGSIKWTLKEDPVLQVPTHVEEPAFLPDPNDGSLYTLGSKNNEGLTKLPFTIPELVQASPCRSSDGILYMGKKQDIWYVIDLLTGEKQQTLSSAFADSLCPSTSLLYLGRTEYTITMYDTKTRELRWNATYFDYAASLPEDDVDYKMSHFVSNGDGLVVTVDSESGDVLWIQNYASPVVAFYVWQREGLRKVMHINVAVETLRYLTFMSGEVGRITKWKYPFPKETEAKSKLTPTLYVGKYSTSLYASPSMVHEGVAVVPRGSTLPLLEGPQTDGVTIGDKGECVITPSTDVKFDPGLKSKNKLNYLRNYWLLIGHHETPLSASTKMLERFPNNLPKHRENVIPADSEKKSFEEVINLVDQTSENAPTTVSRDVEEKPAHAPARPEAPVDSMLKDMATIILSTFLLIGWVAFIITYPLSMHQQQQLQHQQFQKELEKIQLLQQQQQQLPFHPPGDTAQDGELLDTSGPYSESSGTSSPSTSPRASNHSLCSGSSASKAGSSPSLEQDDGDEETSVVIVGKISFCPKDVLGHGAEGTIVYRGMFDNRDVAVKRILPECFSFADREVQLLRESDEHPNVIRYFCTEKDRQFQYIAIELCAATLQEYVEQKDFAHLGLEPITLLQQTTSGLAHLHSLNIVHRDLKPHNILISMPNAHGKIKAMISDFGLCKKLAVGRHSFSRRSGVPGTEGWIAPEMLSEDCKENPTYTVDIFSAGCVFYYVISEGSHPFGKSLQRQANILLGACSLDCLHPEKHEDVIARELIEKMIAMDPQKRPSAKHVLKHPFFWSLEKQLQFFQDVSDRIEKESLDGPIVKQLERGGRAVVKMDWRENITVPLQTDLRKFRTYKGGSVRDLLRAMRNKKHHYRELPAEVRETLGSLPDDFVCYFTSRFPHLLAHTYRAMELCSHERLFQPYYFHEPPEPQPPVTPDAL
Sequence of Serine/threonine-protein kinase N1 (Q16512 whole entry): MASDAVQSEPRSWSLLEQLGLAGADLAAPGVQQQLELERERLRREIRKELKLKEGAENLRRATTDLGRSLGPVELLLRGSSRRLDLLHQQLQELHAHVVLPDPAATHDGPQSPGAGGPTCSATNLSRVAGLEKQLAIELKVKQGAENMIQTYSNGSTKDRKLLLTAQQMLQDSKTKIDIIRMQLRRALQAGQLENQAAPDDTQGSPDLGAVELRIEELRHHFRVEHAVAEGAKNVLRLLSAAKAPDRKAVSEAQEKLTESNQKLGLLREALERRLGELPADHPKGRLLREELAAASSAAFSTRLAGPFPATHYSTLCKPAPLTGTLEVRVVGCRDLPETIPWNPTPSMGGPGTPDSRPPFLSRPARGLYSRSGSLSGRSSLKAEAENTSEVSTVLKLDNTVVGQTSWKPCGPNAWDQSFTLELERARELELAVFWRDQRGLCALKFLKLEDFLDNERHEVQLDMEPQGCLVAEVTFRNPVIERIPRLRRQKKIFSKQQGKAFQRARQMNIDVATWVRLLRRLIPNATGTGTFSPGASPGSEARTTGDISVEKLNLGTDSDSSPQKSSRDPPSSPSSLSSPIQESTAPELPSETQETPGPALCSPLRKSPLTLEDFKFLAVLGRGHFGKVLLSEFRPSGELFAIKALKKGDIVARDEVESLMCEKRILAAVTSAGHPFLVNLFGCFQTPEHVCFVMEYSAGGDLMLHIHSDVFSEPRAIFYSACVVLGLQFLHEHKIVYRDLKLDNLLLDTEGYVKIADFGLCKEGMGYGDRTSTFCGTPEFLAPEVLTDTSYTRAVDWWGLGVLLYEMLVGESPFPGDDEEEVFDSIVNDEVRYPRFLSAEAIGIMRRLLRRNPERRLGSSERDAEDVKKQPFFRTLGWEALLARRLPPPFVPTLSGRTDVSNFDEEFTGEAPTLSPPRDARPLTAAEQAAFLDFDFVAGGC
Sequence of Calcium/calmodulin-dependent protein kinase type II subunit delta (Q13557 whole entry): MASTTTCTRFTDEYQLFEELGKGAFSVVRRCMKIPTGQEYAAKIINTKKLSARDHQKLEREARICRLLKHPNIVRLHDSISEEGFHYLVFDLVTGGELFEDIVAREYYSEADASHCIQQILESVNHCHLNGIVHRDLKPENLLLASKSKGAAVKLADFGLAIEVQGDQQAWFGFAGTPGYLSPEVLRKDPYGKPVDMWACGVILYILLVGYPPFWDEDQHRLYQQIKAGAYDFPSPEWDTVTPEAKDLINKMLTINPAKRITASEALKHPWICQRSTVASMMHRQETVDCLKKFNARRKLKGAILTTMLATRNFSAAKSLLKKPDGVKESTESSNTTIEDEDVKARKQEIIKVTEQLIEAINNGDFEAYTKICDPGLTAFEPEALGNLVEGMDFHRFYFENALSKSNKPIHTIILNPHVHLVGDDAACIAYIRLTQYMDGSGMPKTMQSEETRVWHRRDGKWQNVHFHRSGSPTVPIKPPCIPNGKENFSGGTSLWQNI

For `CCNC(=O)C#Cc1ccc2c(c1)NC(=O)/C2=C(\Nc1ccc(CN(C)C)cc1)c1ccccc1`, the Kd in [1], in assay [2], in assay [3], in [4], in assay [5] and in assay [6] was > 30 µM (inactive) each time. The Kd in [7], in [8] and in assay [9] was > 30 µM (inactive) each time.

With `NC(=O)Nc1cc(-c2cccc(F)c2)sc1C(=O)N[C@H]1CCCNC1` [AZD-7762], the Kd (on Aurora kinase A; in assay [1]; in assay [2]; in assay [3]; in [5]; in [6]) was > 30 µM (inactive) each time. Further, the values for the Kd in [7], in assay [8] and in assay [9] were 2.16 µM (active), 0.094 µM (active) and 0.12 µM (active), respectively.

As to `Cn1cc(C2=C(c3cn(C4CCN(Cc5ccccn5)CC4)c4ccccc34)C(=O)NC2=O)c2ccccc21` [ENZASTAURIN], the Kd in assay [5] and in assay [9] was > 30 µM (inactive) in each case.

As to `CCn1cc(-c2ccnc3[nH]c(-c4cccc(CN(C)C)c4)cc23)c(-c2ccc(NC(=O)N(C)C)cc2)n1` [GSK-1070916], the Kd in [1], in assay [2], in [3], in assay [4], in assay [5] and in [6] was > 30 µM (inactive) in each case. Moreover, the Kd in assay [7] and in assay [8] was > 30 µM (inactive) throughout.

Take `CNC(=O)c1nn(C)c2c1C(C)(C)Cc1cnc(Nc3ccc(N4CCN(C)CC4)cc3)nc1-2` [MILCICLIB]: the Kd at Aurora kinase A is > 30 µM (inactive); in assay [1], > 30 µM (inactive); in assay [4] it was > 30 µM (inactive); in [5], > 30 µM (inactive); in assay [6], 18.6 µM; in assay [7], > 30 µM (inactive).

Regarding `CCOc1cc2ncc(C#N)c(Nc3ccc(F)c(Cl)c3)c2cc1NC(=O)/C=C/CN(C)C` [PELITINIB], the Kd at Aurora kinase A is > 30 µM (inactive); in [1], > 30 µM (inactive); in [2] it was > 30 µM (inactive); in [3], 1.48 µM (active); in assay [4], > 30 µM (inactive); in assay [6], > 30 µM (inactive). The Kd in [7] and in assay [9] was > 30 µM (inactive) in each case.

On to `CC(=O)NCC(=O)N1[C@@H]2CC[C@H]1c1ccc(Nc3ncc(C(F)(F)F)c(NC4CCC4)n3)cc12` [PF-03814735], for which the Kd in assay [4] is 3.64 µM (active); in assay [5], > 30 µM (inactive); in [7] it was 2.94 µM (active); in [8], 0.746 µM (active); in assay [9], 0.01 µM (active).

`CO[C@H]1C[C@@H]2CC[C@@H](C)[C@@](O)(O2)C(=O)C(=O)N2CCCC[C@H]2C(=O)O[C@H]([C@H](C)C[C@@H]2CC[C@@H](OP(C)(C)=O)[C@H](OC)C2)CC(=O)[C@H](C)/C=C(\C)[C@@H](O)[C@@H](OC)C(=O)[C@H](C)C[C@H](C)/C=C/C=C/C=C/1C` [RIDAFOROLIMUS]: the Kd (on Aurora kinase A; in assay [1]; in [2]; in assay [3]; in [4]; in assay [6]) was > 30 µM (inactive) throughout. Further, the Kd in assay [7], in assay [8] and in assay [9] was > 30 µM (inactive) throughout.

In the case of `Cn1ncc(Cl)c1-c1cc(C(=O)N[C@H](CN)Cc2ccc(F)c(F)c2)oc1Cl` [UPROSERTIB], the Kd (at Aurora kinase A; in assay [1]; in [3]; in [4]; in [5]; in [6]) was > 30 µM (inactive) each time. In addition, the Kd was 0.076 µM (active) in assay [7], > 30 µM (inactive) in [8] and > 30 µM (inactive) in [9].
